{"source": "paper PMC2759945", "about": "“Cellular transport of anti-inflammatory pro-drugs originated from a herbal formulation of Zingiber cassumunar and Nigella sativa” (Chinese Medicine, 2009)", "key": {"[1]": {"test_system": "Mycobacterium tuberculosis H37Ra", "parameters": "method as in PMID 17691048", "conditions": "cited from earlier work"}, "[2]": {"test": "Chemical hydrolysis in transport medium (HBSS)", "assay_type": "physicochemical", "conditions": "53 μM and 106 μM in transport medium (HBSS pH7.4), stored at 4°C for 96 hours", "method": "Solution of compound 1, 2 and 3 at 53 μM and 106 μM were prepared in Hank's balanced salt solution (HBSS) at pH7.4. All solutions were kept at 4°C for 96 hours and each solution was then analyzed by HPLC at 12, 24, 48, 72 and 96 hours to determine the hydrolysis product."}, "Caco-2 cell monolayers": {"test_system": "Caco-2 cell monolayers", "test": "Transport across Caco-2 cell monolayers, apical to basolateral", "assay_type": "in vitro ADME, human", "conditions": "for Papp at 53 μM / Papp at 106 μM: apical to basolateral, pH7.4, mean (SD), n = 3", "method": "(§1) Caco-2 cells were maintained in a DMEM at pH7.4, supplemented with 10% fetal bovine serum, 2 mM L-glutamine, 1% non-essential amino acid solution and 0.1% penicillin-streptomycin solution in a humidified atmosphere (5% CO2, 95% air, at 37°C). Cells were grown until 60-70% confluence. Cells from passages 20-40 were used for all experiments. Cells were seeded on tissue culture polycarbonate membrane filters (pore size: 3.0 μm) in 6-well Transwell plates (Corning, USA) at a seeding density of 2 × 10^4cells/cm^2. Culture medium was added to both the donor and the acceptor compartments. Medium was changed every two days. Cells were left to differentiate for 15-21 days after seeding with monitoring of trans-epithelial electrical resistance (TEER) values with a Millicell electrical resistance system (Millipore, USA) and the value should be higher than 600Ω.cm^2.\n(§2) Transport experiment across the Caco-2 cell monolayers at pH7.4 was performed. Caco-2 cell monolayers in Transwell (6-well) plates were used for transport studies when they were differentiated and the monolayer was intact, as checked by measuring TEER. Prior to the experiment, the cells were washed twice with phosphate buffered saline (PBS) and pre-equilibrated for one hour with HBSS buffered with 30 mM n-(2-hydroxyethyl) piperazine-n-(2-ethanosulfonic acid) (HEPES) at pH7.4. After medium was removed, the cells were treated with sample solutions (concentrations of 53 μM and 106 μM in HBSS at pH7.4) in an apical compartment. Samples (1 mL) were taken under sink conditions at 0, 5, 20, 40, 60, 80 and 100 minutes from the basolateral side and replaced with an equal volume of fresh HBSS solution. The amount of the compounds from the basolateral side was determined on a UV-spectrophotometer (Thermo Scientific, USA) at 228 nm. Results were expressed as cumulative transport as a function of time. Apparent permeability coefficient was calculated according to the following equation: […]\n(§3) where Papp is the apparent permeability coefficient (cm/s), dQ/dt (μg/s) is the rate of appearance of sample on the basolateral side, A is the surface area of the monolayer (cm^2) and C0 (μg/mL) is the initial drug concentration in the donor compartment. All rate constants were obtained from the permeation profiles of each compound. Statistical significance was evaluated with one-way analysis of variance (one-way ANOVA). A value of P < 0.05 was considered statistically significant."}, "[3]": {"test": "Transport across Caco-2 cell monolayers, apical to basolateral", "assay_type": "in vitro ADME, human", "conditions": "human, Caco-2, pH 7.4; for Papp at 100 min, 53 μM: read-out: apparent permeability coefficient Papp at 53 μM; for Papp at 100 min, 106 μM: read-out: apparent permeability coefficient Papp at 106 μM", "method": "as §1, §2, §3"}, "porcine liver esterase": {"test_system": "porcine liver esterase", "test": "Enzyme hydrolysis by porcine liver esterase, monitored by HPLC", "assay_type": "in vitro ADME", "conditions": "10 μM, 37°C", "method": "Compound 1 (2 mL, 10 μM solution) was pre-incubated at 37°C and 200 μL of esterase enzyme (porcrine liver, 750 units) was added. Samples (200 μL each) were taken at 5, 10, 20, 30 and 60 minutes and added to 200 μL of methanol. Mixtures were vortexed to stop enzymatic activity. Samples were then centrifuged for five minutes at 14,000 × g (Lab Essentials, USA). Supernatant was injected to the HPLC system for the determination of ester pro-drugs and compound D. This procedure was repeated for compounds 2 and 3."}, "[4]": {"test_system": "herpes simplex virus (HSV-1)", "parameters": "method as in PMID 17691048", "conditions": "vero cell line; cited from earlier work"}, "[5]": {"parameters": "method as in PMID 17691048", "conditions": "human vero cell line, cited from earlier work"}, "[6]": {"test_system": "uterus of non-pregnant rat", "parameters": "method as in PMID 3671553", "conditions": "cited from earlier work"}, "[7]": {"test_system": "carrageenan-induced rat paw edema", "parameters": "method as in doi:10.1055/s-2006-961309", "conditions": "compound D from a hexane extract of Z. cassumunar; cited from earlier work"}, "[8]": {"conditions": "apical to basolateral direction"}}}
{"smiles": "CCCCC/C=C\\C/C=C\\CCCCCCCC(=O)OCC/C=C/c1ccc(OC)c(OC)c1", "note": "[Compound 1, (E)-4-(3,4-dimethoxyphenyl)but-3-en-1-yl linoleate]", "values": [{"measurement": "Minimal inhibitory concentration", "setting": "[1]", "result": 200, "unit": "µg/mL"}, {"measurement": "time after which hydrolysis product compound D was detected by HPLC", "setting": "[2]", "result": 24, "unit": "h"}, {"measurement": "hydrolysis during the transport across Caco-2 cell monolayers", "setting": "Caco-2 cell monolayers", "result": "did not occur"}, {"measurement": "cumulative transport at 53 μM", "setting": "Caco-2 cell monolayers; 53 μM, apical to basolateral direction", "result": "highest cumulative transport"}, {"measurement": "Papp at 53 μM", "setting": "Caco-2 cell monolayers; 53 μM", "result": "13.94 (0.60) 10^-6cm/s"}, {"measurement": "cumulative transport at 106 μM", "setting": "Caco-2 cell monolayers; [8]", "result": "higher cumulative transport over other two fatty acid ester"}, {"measurement": "Papp at 106 μM", "setting": "Caco-2 cell monolayers", "result": "14.33 (0.17) 10^-6cm/s"}, {"measurement": "Papp at 100 min, 53 μM", "setting": "[3]", "result": 13.9, "unit": "×10⁻⁶ cm/s"}, {"measurement": "Papp at 100 min, 106 μM", "setting": "[3]", "result": 14.3, "unit": "×10⁻⁶ cm/s"}, {"measurement": "time in which the ester hydrolysis was completed", "setting": "porcine liver esterase", "result": "≤ 10", "unit": "min"}]}
{"smiles": "CCCCCCCC/C=C\\CCCCCCCC(=O)OCC/C=C/c1ccc(OC)c(OC)c1", "note": "[Compound 2, (E)-4-(3,4-dimethoxyphenyl)but-3-en-1-yl oleate]", "values": [{"measurement": "Minimal inhibitory concentration", "setting": "[1]", "result": 100, "unit": "µg/mL"}, {"measurement": "time after which hydrolysis product compound D was detected by HPLC", "setting": "[2]", "result": 24, "unit": "h"}, {"measurement": "anti-HSV-1 IC50", "setting": "[4]", "result": 42.6, "unit": "µg/mL"}, {"measurement": "hydrolysis during the transport across Caco-2 cell monolayers", "setting": "Caco-2 cell monolayers", "result": "did not occur"}, {"measurement": "Papp at 53 μM", "setting": "Caco-2 cell monolayers; 53 μM", "result": "9.45 (0.29) 10^-6cm/s"}, {"measurement": "Papp at 106 μM", "setting": "Caco-2 cell monolayers", "result": "10.08 (0.32) 10^-6cm/s"}, {"measurement": "Papp at 100 min, 53 μM", "setting": "[3]", "result": 9.45, "unit": "×10⁻⁶ cm/s"}, {"measurement": "Papp at 100 min, 106 μM", "setting": "[3]", "result": 10.1, "unit": "×10⁻⁶ cm/s"}, {"measurement": "time in which the ester hydrolysis was completed", "setting": "porcine liver esterase", "result": "≤ 10", "unit": "min"}, {"measurement": "cytotoxicity", "setting": "[5]; at anti-HSV-1 IC50", "result": "without cytotoxicity"}]}
{"smiles": "CCCCCCCCCCCCCCCC(=O)OCC/C=C/c1ccc(OC)c(OC)c1", "note": "[Compound 3, (E)-4-(3,4-dimethoxyphenyl)but-3-en-1-yl palmitate]", "values": [{"measurement": "Minimal inhibitory concentration", "setting": "[1]", "result": 200, "unit": "µg/mL"}, {"measurement": "time after which hydrolysis product compound D was detected by HPLC", "setting": "[2]", "result": 24, "unit": "h"}, {"measurement": "hydrolysis during the transport across Caco-2 cell monolayers", "setting": "Caco-2 cell monolayers", "result": "did not occur"}, {"measurement": "Papp at 53 μM", "setting": "Caco-2 cell monolayers; 53 μM", "result": "7.48 (0.31)** 10^-6cm/s"}, {"measurement": "Papp at 106 μM", "setting": "Caco-2 cell monolayers", "result": "8.60 (0.55)** 10^-6cm/s"}, {"measurement": "Papp at 100 min, 53 μM", "setting": "[3]", "result": 7.48, "unit": "×10⁻⁶ cm/s"}, {"measurement": "Papp at 100 min, 106 μM", "setting": "[3]", "result": 8.6, "unit": "×10⁻⁶ cm/s"}, {"measurement": "time in which the ester hydrolysis was completed", "setting": "porcine liver esterase", "result": "≤ 10", "unit": "min"}, {"measurement": "cytotoxicity IC50", "setting": "[5]", "result": 38, "unit": "µg/mL"}]}
{"smiles": "COc1ccc(/C=C/CCO)cc1OC", "note": "[Compound D, (E)-4-(3,4-dimethoxyphenyl)but-3-en-1-ol]", "values": [{"measurement": "uterine relaxant effect", "setting": "[6]", "result": "dose dependent uterine relaxant effect"}, {"measurement": "Papp at 53 μM", "setting": "Caco-2 cell monolayers; 53 μM", "result": "8.53 (0.83)** 10^-6cm/s"}, {"measurement": "cumulative transport at 106 μM", "setting": "Caco-2 cell monolayers; [8]", "result": "cumulative transport close to compound 3"}, {"measurement": "Papp at 106 μM", "setting": "Caco-2 cell monolayers", "result": "16.38 (0.61)** 10^-6cm/s"}, {"measurement": "Papp at 100 min, 53 μM", "setting": "[3]", "result": 8.53, "unit": "×10⁻⁶ cm/s"}, {"measurement": "Papp at 100 min, 106 μM", "setting": "[3]", "result": 16.4, "unit": "×10⁻⁶ cm/s"}, {"measurement": "effect on edema formation", "setting": "[7]", "result": "potent inhibitory effect on edema formation"}]}
